Counter-ions that a name gives are not always drawn.

The test system of the data set is Hepatotoxicity. In words: Human drug-induced liver injury (DILI) modelling dataset from Ekins et al.

As for `CC(=O)CC(c1ccc([N+](=O)[O-])cc1)c1c(O)c2ccccc2oc1=O` (stereo not given) [ACENOCOUMAROL], the Hepatotoxicity result was “DILI positive (test set)”.
Same read-out and setting: to `CN(C)[C@@H]1C(O)=C(C(N)=O)C(=O)[C@@]2(O)C(O)=C3C(=O)c4c(O)ccc(Cl)c4[C@@](C)(O)[C@H]3C[C@@H]12.Cl` [CHLORTETRACYCLINE HYDROCHLORIDE] belongs “DILI positive (training set)”.
On the same count and under the same terms, to `C=CCOC=O` [ALLYL FORMATE] belongs “DILI positive (test set)”.
For the molecule `Cc1ccc(S(=O)(=O)NC(=O)NN2CC3CCCC3C2)cc1` (stereo not given) [GLICLAZIDE], the Hepatotoxicity entry is “DILI negative (training set)”.
Regarding `CC(C)(C(=O)O)c1ccc(C(O)CCCN2CCC(C(O)(c3ccccc3)c3ccccc3)CC2)cc1` (stereo not given) [FEXOFENADINE], under “Liver”, the Hepatotoxicity entry is recorded as “DILI negative (test set)”.
`Cl.Nc1ccc(/N=N/c2ccccc2)c(N)n1` [PHENAZOPYRIDINE HYDROCHLORIDE]: the Hepatotoxicity entry is recorded as “DILI positive (training set)”.
Regarding `c1cc[n+]2c(c1)-c1cccc[n+]1CC2` [DIQUAT], the Hepatotoxicity entry (Liver) is on record as “DILI positive (test set)”.
Same read-out and setting: to `Oc1ncc(N(CCCl)CCCl)c(O)n1` [URACIL MUSTARD] belongs “DILI positive (test set)”.
On to `Cn1c(=O)c2[nH]cnc2n(C)c1=O.O` [THEOPHYLLINE], for which the Hepatotoxicity entry is recorded as “DILI negative (test set)”.
In the case of `CC(C)(C)NC(=O)[C@@H]1C[C@@H]2CCCC[C@@H]2CN1C[C@@H](O)[C@H](Cc1ccccc1)NC(=O)[C@H](CC(N)=O)NC(=O)c1ccc2ccccc2n1.CS(=O)(=O)O` [SAQUINAVIR MESYLATE], for the setting “Liver”, the Hepatotoxicity entry is reported as “DILI positive (test set)”.
Take `CCc1nn(CCCN2CCN(c3cccc(Cl)c3)CC2)c(=O)n1CCOc1ccccc1` [NEFAZODONE]: the Hepatotoxicity result is “DILI positive (test set)”.
Still for that read-out and setting: next, `CCCCc1nc(Cl)c(CO)n1Cc1ccc(-c2ccccc2-c2nn[nH]n2)cc1` [LOSARTAN]: “DILI positive (test set)”.
On to `NC1CCN(c2c(F)cc3c(=O)c(C(=O)O)cn(C4CC4)c3c2Cl)C1` (stereo not given) [CLINAFLOXACIN], for which the Hepatotoxicity result is “DILI negative (training set)”.
On the same count and under the same terms, to `C[C@]12CCC(=O)C=C1CC[C@@H]1[C@@H]2[C@@H](O)C[C@@]2(C)[C@H]1CC[C@]2(O)C(=O)CO` [HYDROCORTISONE] belongs “DILI negative (training set)”.
With `CN1c2ccccc2C(NCCCCCCC(=O)O)c2ccc(Cl)cc2S1(=O)=O` (stereo not given) [TIANEPTINE], the Hepatotoxicity result is recorded as “DILI positive (training set)”.
The same measure, in the same setting: next, `ClC(Cl)(Cl)Cl` [CARBON TETRACHLORIDE]: “DILI positive (test set)”; `CC(C)NCC(O)COc1cccc2ccccc12` (stereo not given) [PROPRANOLOL]: “DILI negative (test set)”; `Cc1nc2n(c(=O)c1CCN1CCC(c3noc4cc(F)ccc34)CC1)CCCC2` [RISPERIDONE]: “DILI positive (training set)”.
On the same count and under the same terms, to `CCCOc1ccc2nc(NC(=O)OC)[nH]c2c1` [OXIBENDAZOLE] belongs “DILI positive (training set)”.
The same measure, in the same setting: next, `CCCCCCCCCCCCCCCC(=O)OC[C@@H](NC(=O)C(Cl)Cl)[C@H](O)c1ccc([N+](=O)[O-])cc1` [CHLORAMPHENICOL PALMITATE]: “DILI positive (training set)”; `Clc1ccc(CCC(Cn2ccnc2)Sc2c(Cl)cccc2Cl)cc1.O=[N+]([O-])O` (stereo not given) [BUTOCONAZOLE NITRATE]: “DILI negative (test set)”.
Regarding `CN(C)CCCN1c2ccccc2CCc2ccccc21.Cl` [IMIPRAMINE HYDROCHLORIDE], the Hepatotoxicity entry is given as “DILI positive (training set)”.
On the same count and under the same terms, next, `CCN1CCN(C(=O)N[C@@H](C(=O)N[C@@H]2C(=O)N3C(C(=O)O)=C(CSc4nnnn4C)CS[C@H]23)c2ccc(O)cc2)C(=O)C1=O.O.O` [CEFOPERAZONE DIHYDRATE]: “DILI negative (training set)”; `CC1=C(C(=O)O)N2C(=O)[C@@H](NC(=O)[C@H](N)C3=CCC=CC3)[C@H]2SC1` [CEPHRADINE]: “DILI negative (test set)”.
Take `CN(C)CCC=C1c2ccccc2CCc2ccccc21.Cl` [AMITRIPTYLINE HYDROCHLORIDE]: the Hepatotoxicity result is reported as “DILI negative (training set)”.
On the same count and under the same terms, next, `CC(C)C(=O)Nc1ccc([N+](=O)[O-])c(C(F)(F)F)c1` [FLUTAMIDE]: “DILI positive (training set)”; `O=C(O)c1cc(=O)c2c(OCC(O)COc3cccc4oc(C(=O)O)cc(=O)c34)cccc2o1` [CROMOLYN]: “DILI negative (training set)”; `CN1CCN2c3ccccc3Cc3ccccc3C2C1` (stereo not given) [MIANSERIN]: “DILI positive (test set)”.
Still for that read-out and setting: to `CN1CCN(CCCN2c3ccccc3Sc3ccc(Cl)cc32)CC1.O=C(O)/C=C\C(=O)O.O=C(O)/C=C\C(=O)O` [PROCHLORPERAZINE MALEATE] belongs “DILI positive (test set)”; to `Cc1cnc(NC(=O)C2=C(O)c3ccccc3S(=O)(=O)N2C)s1` [MELOXICAM], “DILI negative (test set)”.
With `CN(C)C(=N)N=C(N)N` [METFORMIN], the Hepatotoxicity entry (Liver) was “DILI negative (test set)”.
As to `Cc1cc(C2CCCCC2)n(O)c(=O)c1` [CICLOPIROX], the Hepatotoxicity entry was “DILI negative (training set)”.
On the same count and under the same terms, next, `CC(C(=O)O)c1ccc2oc(-c3ccc(Cl)cc3)nc2c1` (stereo not given) [BENOXAPROFEN]: “DILI positive (test set)”.
Still for that read-out and setting: next, `NC1=NC(=O)C(c2ccccc2)O1` (stereo not given) [PEMOLINE]: “DILI positive (test set)”; `CC(C)NCC(O)c1cc(O)cc(O)c1.CC(C)NCC(O)c1cc(O)cc(O)c1.O=S(=O)(O)O` (stereo not given) [METAPROTERENOL SULFATE]: “DILI positive (training set)”.
On the same count and under the same terms, next, `COc1cc2ncnc(Nc3ccc(F)c(Cl)c3)c2cc1OCCCN1CCOCC1` [GEFITINIB]: “DILI positive (test set)”; `CC(C)c1nc(CN(C)C(=O)N[C@H](C(=O)N[C@@H](Cc2ccccc2)C[C@H](O)[C@H](Cc2ccccc2)NC(=O)OCc2cncs2)C(C)C)cs1` [RITONAVIR]: “DILI positive (test set)”; `CN(C)CCN(Cc1cccs1)c1ccccn1`: “DILI positive (test set)”.
With `CC(C)NCC(O)COc1cccc2[nH]ccc12` (stereo not given) [PINDOLOL], the Hepatotoxicity entry is on record as “DILI negative (training set)”.
Take `CC(=O)N1CCN(c2ccc(OCC3COC(Cn4ccnc4)(c4ccc(Cl)cc4Cl)O3)cc2)CC1` (stereo not given) [KETOCONAZOLE]: the Hepatotoxicity result is “DILI positive (test set)”.
On the same count and under the same terms, next, `CO[C@@]1(NC(=O)C(C(=O)[O-])c2ccc(O)cc2)C(=O)N2C(C(=O)[O-])=C(CSc3nnnn3C)CO[C@@H]21.[Na+].[Na+]` (stereo not given in full) [MOXALACTAM DISODIUM]: “DILI negative (test set)”.
On the same count and under the same terms, to `CCCCc1ncc(/C=C(\Cc2cccs2)C(=O)O)n1Cc1ccc(C(=O)O)cc1` [EPROSARTAN] belongs “DILI negative (test set)”.
On the same count and under the same terms, next, `CN(C)CCCN1c2ccccc2CCc2ccc(Cl)cc21` [CLOMIPRAMINE]: “DILI positive (training set)”; `Cc1cn([C@H]2C=C[C@@H](CO)O2)c(=O)[nH]c1=O` [STAVUDINE]: “DILI positive (training set)”; `CS(=O)(=O)OCCOS(C)(=O)=O` [ETHANE DIMETHANE SULFONATE]: “DILI positive (test set)”.
For `CC[N+](CC)(CC)CCOc1cccc(OCC[N+](CC)(CC)CC)c1OCC[N+](CC)(CC)CC.[I-].[I-].[I-]` [GALLAMINE TRIETHIODIDE], the Hepatotoxicity entry was “DILI negative (training set)”.
Same read-out and setting: to `Cn1nnnc1SCC1=C(C(=O)[O-])N2C(=O)[C@@H](NC(=O)[C@H](O)c3ccccc3)[C@H]2SC1.[Na+]` [CEFAMANDOLE SODIUM] belongs “DILI positive (test set)”.
The same measure, in the same setting: next, `O=C(O)/C=C\C(=O)O` [MALEIC ACID]: “DILI positive (training set)”.
Same read-out and setting: next, `Br.COc1ccc2c(c1)[C@]13CCCC[C@@H]1[C@H](C2)N(C)CC3.O` [DEXTROMETHORPHAN HYDROBROMIDE]: “DILI negative (training set)”; `CC(C(=O)O)c1ccc(N2CC=CC2)c(Cl)c1` (stereo not given) [PIRPROFEN]: “DILI positive (test set)”.
Consider `C#C[C@]1(O)CC[C@H]2[C@@H]3CCc4cc(OC)ccc4[C@H]3CC[C@@]21C` [MESTRANOL], for which the Hepatotoxicity result was “DILI positive (test set)”.
Same read-out and setting: next, `CC1=C(/C=C/C(C)=C/C=C/C(C)=C\C(=O)O)C(C)(C)CCC1` [ISOTRETINOIN]: “DILI positive (training set)”.
Same read-out and setting: to `Nc1nc2ccc(OC(F)(F)F)cc2s1` [RILUZOLE] belongs “DILI positive (training set)”.
On the same count and under the same terms, next, `CCCC[C@@H](CC)COC(=O)c1ccccc1C(=O)OC[C@@H](CC)CCCC` [BIS(2-ETHYLHEXYL)PHTHALATE]: “DILI positive (test set)”.
Regarding `CC(C)(C)NCC(O)c1cc(O)cc(O)c1.O=S(=O)(O)O` (stereo not given), the Hepatotoxicity entry was “DILI positive (test set)”.
Turning to `CN[C@@H]1[C@H](O)[C@H](NC)[C@H]2O[C@@]3(O)C(=O)C[C@@H](C)O[C@H]3O[C@@H]2[C@H]1O.Cl`, the Hepatotoxicity entry is on record as “DILI positive (test set)”.
Turning to `Cl.NCCNCCNCCN`, the Hepatotoxicity result (Liver) is “DILI positive (test set)”.
For the molecule `O=c1[nH]c(=O)n([C@H]2C[C@H](O)[C@@H](CO)O2)cc1F` [FLOXURIDINE], the Hepatotoxicity result was “DILI positive (training set)”.
Same read-out and setting: to `CC(=N)S` [THIOACETAMIDE] belongs “DILI positive (training set)”.
The same measure, in the same setting: next, `CN(C)CCn1nnnc1SCC1=C(C(=O)O)N2C(=O)[C@@H](NC(=O)Cc3csc(N)n3)[C@H]2SC1.Cl.Cl` [CEFOTIAM HYDROCHLORIDE]: “DILI positive (test set)”.
Regarding `Cc1ncc(C[n+]2csc(CCO)c2C)c(N)n1` [THIAMINE ION], the Hepatotoxicity entry (Liver) is reported as “DILI negative (test set)”.
Take `C[C@](N)(Cc1ccc(O)c(O)c1)C(=O)O` [METHYLDOPA]: the Hepatotoxicity result is recorded as “DILI positive (test set)”.
On the same count and under the same terms, to `COc1ccc2c(C(=S)N(C)CC(=O)O)cccc2c1C(F)(F)F` [TOLRESTAT] belongs “DILI positive (test set)”.
The same measure, in the same setting: next, CISPLATIN: “DILI positive (test set)”.
`Cc1cccc(Nc2ccccc2C(=O)O)c1C` [MEFENAMIC ACID]: under “Liver”, the Hepatotoxicity entry is listed as “DILI positive (training set)”.

The values are drawn from ChEMBL document CHEMBL1697723, “A predictive ligand-based Bayesian model for human drug-induced liver injury” (Drug Metab Dispos, 2010).
